Laboratory results taken from ChEMBL document CHEMBL1144919, “Synthesis of novel thrombin inhibitors. Use of ring-closing metathesis reactions for synthesis of P2 cyclopentene- and cyclohexenedicarboxylic acid derivatives” (J Med Chem, 2003).

Target: Prothrombin (Homo sapiens, UniProt P00734)
Test: In vitro inhibitory concentration of compound against human thrombin

IC50 [nM]	SMILES
350	CCN(C(=O)C1=CCCC1C(=O)NCc1ccc(C(=N)N)cc1)c1ccccc1F (stereo not given)
970	CCN(C(=O)C1=CCCC1C(=O)NCc1ccc(C(=N)N)cc1)c1ccccc1 (stereo not given)
220	CCN(C(=O)C1=CCCC1C(=O)NCc1ccc(C(=N)N)cc1)c1cc(Cl)ccc1C (stereo not given)
390	CCN(C(=O)C1=CCCC1C(=O)NCc1ccc(C(=N)N)cc1)c1cccc(Cl)c1 (stereo not given)
120	CCN(C(=O)C1=CCC[C@H]1C(=O)NCc1ccc(C(=N)N)cc1)c1cccc(OC)c1
240	CCN(C(=O)C1=CCCC1C(=O)NCc1ccc(C(=N)N)cc1)c1cccc(OC)c1 (stereo not given)
250	CCN(C(=O)C1=CCCC1C(=O)NCc1ccc(C(=N)N)cc1)c1ccccc1OC (stereo not given)
210	CCN(C(=O)C1=CCCC1C(=O)NCc1ccc(C(=N)N)cc1)c1cc(OC)cc(OC)c1 (stereo not given)
3800	CCN(C(=O)C1=CCCCC1C(=O)NCc1ccc(C(=N)N)cc1)c1ccccc1 (stereo not given)
270	CCc1cccc(N(CC)C(=O)C2=CCCC2C(=O)NCc2ccc(C(=N)N)cc2)c1 (stereo not given)
7800	CCN(C(=O)C1CCC=C1C(=O)NCc1ccc(C(=N)N)cc1)c1cccc(OC)c1 (stereo not given)
630	CCN(C(=O)C1=CCCC1C(=O)NCc1ccc(C(=N)N)cc1)c1cccc(F)c1 (stereo not given)
940	CCN(C(=O)C1=CCCC1C(=O)NCc1ccc(C(=N)N)cc1)c1ccc(OC)cc1 (stereo not given)
4600	CCN(C(=O)C1=CCCCC1C(=O)NCc1ccc(C(=N)N)cc1)c1ccccc1C (stereo not given)
73	CCN(C(=O)C1=CCCC1C(=O)NCc1ccc(C(=N)N)cc1)c1cc(OC)ccc1OC (stereo not given)
680	CCN(C(=O)C1=CCCC1C(=O)NCc1ccc(C(=N)N)cc1)c1ccccc1C (stereo not given)

Second part, the compound before the results:

SMILES	IC50 [nM]
CCN(C(=O)C1=C(C(=O)NCc2ccc(C(=N)N)cc2)CCC1)c1ccccc1	28000
CC1Cc2ccccc2N1C(=O)C1=CCCC1C(=O)NCc1ccc(C(=N)N)cc1 (stereo not given)	3400
N=C(N)c1ccc(CNC(=O)C2CCC=C2C(=O)N2CCCCC2)cc1 (stereo not given)	6000
N=C(N)c1ccc(CNC(=O)C2CCCC=C2C(=O)Nc2ccccc2)cc1 (stereo not given)	130000
N=C(N)c1ccc(CNC(=O)C2CCCC=C2C(=O)NCc2ccccc2)cc1 (stereo not given)	109000
CCN(C(=O)C1CCC=C1C(=O)NCc1ccc(C(=N)N)cc1)c1ccccc1 (stereo not given)	16000
N=C(N)c1ccc(CNC(=O)C2CCCC=C2C(=O)N2CCCCC2)cc1 (stereo not given)	38000
CCc1cccc(N(C(=O)C2=CCCC2C(=O)NCc2ccc(C(=N)N)cc2)C2CCCCC2)c1 (stereo not given)	260
CCN(C(=O)C1=C(C(=O)NCc2ccc(C(=N)N)cc2)CCC1)c1cccc(OC)c1	24000
N=C(N)c1ccc(CNC(=O)C2CCCC=C2C(=O)NC2CCCCC2)cc1 (stereo not given)	> 130000
Cc1ccccc1N(CC(=O)O)C(=O)C1=C(C(=O)NCc2ccc(C(=N)N)cc2)CCC1	120000
Cc1ccccc1N(CC(=O)O)C(=O)C1=CCCC1C(=O)NCc1ccc(C(=N)N)cc1 (stereo not given)	1300
N=C(N)c1ccc(CNC(=O)C2CCC=C2C(=O)N2CCc3ccccc32)cc1 (stereo not given)	4600
N=C(N)NCCC[C@H](NC(=O)[C@@H]1CCCN1C(=O)C(N)Cc1ccccc1)C(=O)O (stereo in doubt)	0.017
N=C(N)c1ccc(CNC(=O)C2=C(C(=O)N3CCc4ccccc43)CCC2)cc1	> 130000
CCN(C(=O)C1CCC=C1C(=O)NCc1ccc(C(=N)N)cc1)c1ccccc1F (stereo not given)	93000
COc1ccc(OC)c(N(C(=O)C2=CCCC2C(=O)NCc2ccc(C(=N)N)cc2)C2CCCCC2)c1 (stereo not given)	49
CCN(C(=O)C1=C(C(=O)NCc2ccc(C(=N)N)cc2)CCC1)c1cc(Cl)ccc1C	23000
N=C(N)c1ccc(CNC(=O)C2=C(C(=O)NC3CCCCC3)CCC2)cc1	19000
